Results taken from paper PMC7265341, “Quantifying CDK inhibitor selectivity in live cells” (Nature Communications, 2020).
Where two headings read alike, the source gives them in different places.

Columns and labels:
CDK3/Cyclin E1 = CDK3/Cyclin E1 (Homo sapiens, UniProt Q00526); experiment: NanoBRET live-cell target engagement, CDK3-NanoLuc/Cyclin E1 in HEK-293; type: binding; conditions: CDK3/E1, 10µM
CDK1/Cyclin E1 = CDK1/Cyclin E1 (Homo sapiens, UniProt P06493); experiment: NanoBRET live-cell target engagement, CDK1-NanoLuc/Cyclin E1 in HEK-293; type: binding; conditions: CDK1/E1, 10µM
CDK6/Cyclin D1 = CDK6/Cyclin D1 (Homo sapiens, UniProt Q00534); experiment: NanoBRET live-cell target engagement, NanoLuc-CDK6/Cyclin D1 in HEK-293; type: binding; conditions: CDK6/D1, 10µM
CDK8/Cyclin C = CDK8/Cyclin C (Homo sapiens, UniProt P49336); experiment: NanoBRET live-cell target engagement, NanoLuc-CDK8/Cyclin C in HEK-293; type: binding
CDK11B/Cyclin L2 = CDK11B/Cyclin L2 (Homo sapiens, UniProt P21127); experiment: NanoBRET live-cell target engagement, CDK11B-NanoLuc/Cyclin L2 in HEK-293; type: binding; conditions: CDK11b/L2, 10µM
CDK12/Cyclin K = CDK12/Cyclin K (Homo sapiens, UniProt Q9NYV4); experiment: NanoBRET live-cell target engagement, CDK12-NanoLuc/Cyclin K in HEK-293; type: binding; conditions: CDK12/K, 10µM
CDK10/Cyclin L2 = CDK10/Cyclin L2 (Homo sapiens, UniProt Q15131); experiment: NanoBRET live-cell target engagement, CDK10-NanoLuc/Cyclin L2 in HEK-293; conditions: 10µM
CDK11A/Cyclin L2 = biological target: T1, CDK11A/Cyclin L2 (Homo sapiens, UniProt Q9UQ88); experiment: NanoBRET live-cell target engagement, CDK11A-NanoLuc/Cyclin L2 in HEK-293; type: binding; conditions: CDK11a/L2, 10µM
T1 sequence (Q9UQ88 1-783): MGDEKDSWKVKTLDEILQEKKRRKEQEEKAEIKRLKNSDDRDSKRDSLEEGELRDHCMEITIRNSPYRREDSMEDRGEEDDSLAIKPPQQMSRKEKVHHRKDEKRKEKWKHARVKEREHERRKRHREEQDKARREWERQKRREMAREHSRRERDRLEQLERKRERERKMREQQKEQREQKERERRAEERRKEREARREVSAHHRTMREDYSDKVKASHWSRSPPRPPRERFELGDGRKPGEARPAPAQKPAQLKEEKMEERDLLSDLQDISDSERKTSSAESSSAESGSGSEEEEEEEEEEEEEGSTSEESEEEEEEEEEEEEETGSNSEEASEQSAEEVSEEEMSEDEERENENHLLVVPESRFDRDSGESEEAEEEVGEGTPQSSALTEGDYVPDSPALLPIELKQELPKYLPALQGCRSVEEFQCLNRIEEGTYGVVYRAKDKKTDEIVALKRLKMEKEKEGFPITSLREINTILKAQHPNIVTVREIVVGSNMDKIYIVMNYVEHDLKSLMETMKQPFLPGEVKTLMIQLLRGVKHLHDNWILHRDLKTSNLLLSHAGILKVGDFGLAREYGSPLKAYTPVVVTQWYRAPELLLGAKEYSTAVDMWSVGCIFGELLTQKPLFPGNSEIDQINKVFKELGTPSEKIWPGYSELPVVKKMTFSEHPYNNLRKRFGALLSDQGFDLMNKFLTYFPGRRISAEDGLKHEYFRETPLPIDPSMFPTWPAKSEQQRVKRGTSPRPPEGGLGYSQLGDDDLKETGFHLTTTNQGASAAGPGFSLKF

CDK5/CDK5R1 = CDK5/CDK5R1 (Homo sapiens, UniProt Q00535); experiment: NanoBRET live-cell target engagement, CDK5-NanoLuc/CDK5R1 in HEK-293; type: binding; conditions: CDK5/CDK5R1, 10µM
CDK2/Cyclin E1 = CDK2/Cyclin E1 (Homo sapiens, UniProt P24941); experiment: NanoBRET live-cell target engagement, CDK2-NanoLuc/Cyclin E1 in HEK-293; type: binding; conditions: CDK2/E1, 10µM
CDK9/Cyclin K = CDK9/Cyclin K (Homo sapiens, UniProt P50750); experiment: NanoBRET live-cell target engagement, NanoLuc-CDK9/Cyclin K in HEK-293; type: binding; conditions: CDK9/K, 10µM
CDK19/Cyclin C = CDK19/Cyclin C (Homo sapiens, UniProt Q9BWU1); experiment: NanoBRET live-cell target engagement, NanoLuc-CDK19/Cyclin C in HEK-293
CDK13/Cyclin K = CDK13/Cyclin K (Homo sapiens, UniProt Q14004); experiment: NanoBRET live-cell target engagement, CDK13-NanoLuc/Cyclin K in HEK-293; type: binding; conditions: CDK13/K, 10µM
CDK4/Cyclin D1 = CDK4/Cyclin D1 (Homo sapiens, UniProt P11802); experiment: NanoBRET live-cell target engagement, NanoLuc-CDK4/Cyclin D1 in HEK-293; type: binding; conditions: CDK4/D1, 10µM
CDK20/Cyclin H = CDK20/Cyclin H (Homo sapiens, UniProt Q8IZL9); experiment: NanoBRET live-cell target engagement, NanoLuc-CDK20/Cyclin H in HEK-293; type: binding; conditions: CDK20/H, 10µM
[1] = average of replicates, read-out: Inhibition at 10µM (%) Average
[2] = read-out: Inhibition at 10µM (%) Replicate 1
[3] = read-out: Inhibition at 10µM (%) Replicate 2

Sequence of CDK4/Cyclin D1 (P11802 whole entry): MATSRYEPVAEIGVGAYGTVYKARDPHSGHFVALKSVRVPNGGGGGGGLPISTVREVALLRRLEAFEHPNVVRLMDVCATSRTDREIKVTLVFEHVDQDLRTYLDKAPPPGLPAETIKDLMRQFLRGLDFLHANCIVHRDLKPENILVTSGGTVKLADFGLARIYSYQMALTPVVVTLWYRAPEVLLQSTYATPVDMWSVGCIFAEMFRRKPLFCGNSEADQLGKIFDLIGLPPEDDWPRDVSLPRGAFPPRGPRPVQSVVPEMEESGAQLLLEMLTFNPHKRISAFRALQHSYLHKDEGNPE
Sequence of CDK4/Cyclin D1 (P24385 whole entry partner): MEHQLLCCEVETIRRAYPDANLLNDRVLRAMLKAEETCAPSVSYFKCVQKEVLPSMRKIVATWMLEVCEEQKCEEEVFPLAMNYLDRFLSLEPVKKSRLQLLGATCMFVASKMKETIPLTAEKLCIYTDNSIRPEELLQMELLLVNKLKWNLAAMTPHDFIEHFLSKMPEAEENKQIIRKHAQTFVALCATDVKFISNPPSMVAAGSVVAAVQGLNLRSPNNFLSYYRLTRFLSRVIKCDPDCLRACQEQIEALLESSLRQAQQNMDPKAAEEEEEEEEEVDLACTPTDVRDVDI
Sequence of CDK8/Cyclin C (P49336 whole entry): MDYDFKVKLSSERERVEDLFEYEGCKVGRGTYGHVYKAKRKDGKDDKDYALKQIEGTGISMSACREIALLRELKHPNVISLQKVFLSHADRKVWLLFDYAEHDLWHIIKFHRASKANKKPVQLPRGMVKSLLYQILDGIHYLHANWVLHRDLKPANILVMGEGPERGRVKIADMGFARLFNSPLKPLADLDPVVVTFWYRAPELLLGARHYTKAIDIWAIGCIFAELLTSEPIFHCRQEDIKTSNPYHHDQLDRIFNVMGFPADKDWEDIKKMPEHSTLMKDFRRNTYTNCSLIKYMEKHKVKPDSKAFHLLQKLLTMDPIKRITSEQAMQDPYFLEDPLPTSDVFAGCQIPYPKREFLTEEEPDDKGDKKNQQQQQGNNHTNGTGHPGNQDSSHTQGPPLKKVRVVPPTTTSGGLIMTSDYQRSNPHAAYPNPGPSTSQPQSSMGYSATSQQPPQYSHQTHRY
Sequence of CDK8/Cyclin C (P24863 whole entry partner): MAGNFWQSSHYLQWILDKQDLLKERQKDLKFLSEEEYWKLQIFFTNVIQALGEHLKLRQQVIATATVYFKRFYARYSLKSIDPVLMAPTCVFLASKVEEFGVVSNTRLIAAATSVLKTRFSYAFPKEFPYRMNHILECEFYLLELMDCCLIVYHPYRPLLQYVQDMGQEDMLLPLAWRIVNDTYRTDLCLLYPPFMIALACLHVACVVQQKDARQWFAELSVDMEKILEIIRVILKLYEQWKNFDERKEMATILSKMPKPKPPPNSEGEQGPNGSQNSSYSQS
Sequence of CDK11B/Cyclin L2 (P21127 1-782 isoform P21127-2): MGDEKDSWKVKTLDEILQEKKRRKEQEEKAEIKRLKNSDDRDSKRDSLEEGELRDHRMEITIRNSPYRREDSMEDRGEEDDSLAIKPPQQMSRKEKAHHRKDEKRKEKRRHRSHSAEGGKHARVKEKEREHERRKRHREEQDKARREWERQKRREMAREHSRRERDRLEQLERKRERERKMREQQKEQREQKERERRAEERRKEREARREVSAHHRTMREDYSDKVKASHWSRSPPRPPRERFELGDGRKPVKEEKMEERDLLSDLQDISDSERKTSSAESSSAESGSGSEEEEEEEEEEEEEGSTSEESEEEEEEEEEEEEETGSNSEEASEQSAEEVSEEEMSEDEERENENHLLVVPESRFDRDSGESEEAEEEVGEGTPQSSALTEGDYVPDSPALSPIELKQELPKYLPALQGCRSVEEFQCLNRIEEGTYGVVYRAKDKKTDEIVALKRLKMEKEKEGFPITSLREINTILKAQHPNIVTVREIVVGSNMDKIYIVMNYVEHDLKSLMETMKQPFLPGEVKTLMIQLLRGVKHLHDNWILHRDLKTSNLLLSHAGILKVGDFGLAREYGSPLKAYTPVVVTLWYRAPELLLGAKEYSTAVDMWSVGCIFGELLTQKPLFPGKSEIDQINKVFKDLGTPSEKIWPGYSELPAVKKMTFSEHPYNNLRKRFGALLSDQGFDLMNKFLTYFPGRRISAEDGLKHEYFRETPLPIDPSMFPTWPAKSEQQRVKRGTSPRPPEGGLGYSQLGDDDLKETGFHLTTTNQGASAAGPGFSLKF
Sequence of CDK5/CDK5R1 (Q00535 whole entry): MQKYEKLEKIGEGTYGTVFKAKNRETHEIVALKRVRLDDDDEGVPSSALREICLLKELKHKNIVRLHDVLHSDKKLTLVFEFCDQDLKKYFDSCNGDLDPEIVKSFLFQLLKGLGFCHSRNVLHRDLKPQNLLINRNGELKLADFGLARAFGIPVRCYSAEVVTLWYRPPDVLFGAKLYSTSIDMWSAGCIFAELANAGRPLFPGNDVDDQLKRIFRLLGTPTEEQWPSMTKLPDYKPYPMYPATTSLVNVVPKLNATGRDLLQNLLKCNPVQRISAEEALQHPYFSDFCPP
Sequence of CDK5/CDK5R1 (Q15078 whole entry partner): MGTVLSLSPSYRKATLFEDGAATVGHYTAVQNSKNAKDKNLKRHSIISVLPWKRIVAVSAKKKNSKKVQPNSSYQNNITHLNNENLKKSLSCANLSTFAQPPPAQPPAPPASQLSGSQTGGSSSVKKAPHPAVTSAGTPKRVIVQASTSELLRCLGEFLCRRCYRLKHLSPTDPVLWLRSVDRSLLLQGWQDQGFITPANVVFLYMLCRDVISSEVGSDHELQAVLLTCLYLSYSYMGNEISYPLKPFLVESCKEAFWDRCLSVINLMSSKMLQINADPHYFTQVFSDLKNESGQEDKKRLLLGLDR
Sequence of CDK13/Cyclin K (O75909 whole entry): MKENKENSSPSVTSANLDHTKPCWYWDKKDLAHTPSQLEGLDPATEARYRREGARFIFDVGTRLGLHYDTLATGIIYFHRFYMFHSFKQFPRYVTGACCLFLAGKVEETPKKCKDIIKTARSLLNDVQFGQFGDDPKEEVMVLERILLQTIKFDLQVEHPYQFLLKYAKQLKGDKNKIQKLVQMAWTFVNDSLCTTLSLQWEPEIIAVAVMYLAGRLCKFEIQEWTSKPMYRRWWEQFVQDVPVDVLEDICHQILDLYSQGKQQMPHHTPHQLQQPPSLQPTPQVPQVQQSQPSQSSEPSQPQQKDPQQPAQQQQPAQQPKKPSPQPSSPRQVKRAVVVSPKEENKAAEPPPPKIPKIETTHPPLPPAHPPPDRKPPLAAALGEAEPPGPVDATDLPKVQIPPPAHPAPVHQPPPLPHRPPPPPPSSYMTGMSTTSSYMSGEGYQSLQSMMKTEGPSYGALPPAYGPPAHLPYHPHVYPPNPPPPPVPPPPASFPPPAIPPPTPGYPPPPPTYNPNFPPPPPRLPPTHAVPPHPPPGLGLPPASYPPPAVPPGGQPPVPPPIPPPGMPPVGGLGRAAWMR
Sequence of CDK13/Cyclin K (Q14004 other isoform, or with tags, fused parts or gaps): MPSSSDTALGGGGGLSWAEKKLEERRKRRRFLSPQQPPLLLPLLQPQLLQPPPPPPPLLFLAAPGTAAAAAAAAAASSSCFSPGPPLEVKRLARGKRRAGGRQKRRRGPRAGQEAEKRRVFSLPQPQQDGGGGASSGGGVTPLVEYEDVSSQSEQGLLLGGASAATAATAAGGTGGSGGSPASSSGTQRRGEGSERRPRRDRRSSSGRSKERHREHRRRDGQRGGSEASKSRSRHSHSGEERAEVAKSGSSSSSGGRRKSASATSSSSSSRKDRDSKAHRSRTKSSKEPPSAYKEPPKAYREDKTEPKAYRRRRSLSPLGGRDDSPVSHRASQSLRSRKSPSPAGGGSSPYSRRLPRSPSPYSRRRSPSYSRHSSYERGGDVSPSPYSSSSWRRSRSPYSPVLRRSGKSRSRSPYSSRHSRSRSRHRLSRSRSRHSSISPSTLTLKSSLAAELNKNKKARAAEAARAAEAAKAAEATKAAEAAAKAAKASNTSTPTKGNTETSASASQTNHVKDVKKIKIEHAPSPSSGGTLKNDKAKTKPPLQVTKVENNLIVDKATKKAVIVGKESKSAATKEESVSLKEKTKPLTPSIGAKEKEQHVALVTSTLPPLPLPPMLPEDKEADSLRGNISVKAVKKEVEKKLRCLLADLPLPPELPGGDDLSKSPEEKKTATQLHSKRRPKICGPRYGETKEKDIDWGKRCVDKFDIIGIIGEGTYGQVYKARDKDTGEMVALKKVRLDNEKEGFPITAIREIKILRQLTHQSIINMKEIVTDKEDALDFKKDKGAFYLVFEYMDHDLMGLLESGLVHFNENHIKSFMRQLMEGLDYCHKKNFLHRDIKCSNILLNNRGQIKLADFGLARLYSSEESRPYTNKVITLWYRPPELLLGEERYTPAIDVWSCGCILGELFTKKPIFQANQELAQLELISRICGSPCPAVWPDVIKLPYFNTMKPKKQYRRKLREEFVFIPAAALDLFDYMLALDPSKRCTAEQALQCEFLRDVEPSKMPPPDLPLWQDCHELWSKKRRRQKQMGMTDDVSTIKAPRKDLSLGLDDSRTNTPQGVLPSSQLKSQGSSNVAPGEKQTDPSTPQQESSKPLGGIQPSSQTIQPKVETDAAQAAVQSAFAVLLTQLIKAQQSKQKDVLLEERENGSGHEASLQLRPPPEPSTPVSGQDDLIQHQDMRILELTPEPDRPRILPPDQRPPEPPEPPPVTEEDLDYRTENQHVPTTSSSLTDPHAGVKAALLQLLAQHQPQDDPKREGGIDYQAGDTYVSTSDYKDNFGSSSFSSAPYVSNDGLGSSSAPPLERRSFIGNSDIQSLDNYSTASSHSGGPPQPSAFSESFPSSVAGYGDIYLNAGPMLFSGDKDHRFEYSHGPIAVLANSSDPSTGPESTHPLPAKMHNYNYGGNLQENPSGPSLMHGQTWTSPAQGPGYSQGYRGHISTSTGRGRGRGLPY

CCN1CCN(Cc2ccc(NC(=O)Nc3ccc(Oc4cc(NC)ncn4)cc3)cc2C(F)(F)F)CC1 [AST-487]
inhibition at 10 µM (CDK3/Cyclin E1; [1]): 71.7%
inhibition at 10 µM (CDK3/Cyclin E1; [2]): 58%
inhibition at 10 µM (CDK3/Cyclin E1; [3]): 85.5%
inhibition at 10 µM (CDK1/Cyclin E1; [1]): 75.2%
inhibition at 10 µM (CDK1/Cyclin E1; [2]): 59.8%
inhibition at 10 µM (CDK1/Cyclin E1; [3]): 90.6%
inhibition at 10 µM (CDK6/Cyclin D1; [1]): 50.9%
inhibition at 10 µM (CDK6/Cyclin D1; [2]): 15.7%
inhibition at 10 µM (CDK6/Cyclin D1; [3]): 86.2%
inhibition at 10 µM (CDK8/Cyclin C; CDK8/C, average of replicates, read-out: Inhibition at 10µM (%) Average): 95.7%
inhibition at 10 µM (CDK8/Cyclin C; CDK8/C, read-out: Inhibition at 10µM (%) Replicate 1): 95.7%
inhibition at 10 µM (CDK8/Cyclin C; CDK8/C, read-out: Inhibition at 10µM (%) Replicate 2): 95.7%
IC50 (CDK8/Cyclin C; CDK8/C, n=3 average ± SEM, n=2 average to 2 significant figures, read-out: IC50 (nM) Average*): 24 nM
IC50 (CDK8/Cyclin C; CDK8/C, read-out: IC50 (nM) Replicate 1): 23 nM
IC50 (CDK8/Cyclin C; CDK8/C, read-out: IC50 (nM) Replicate 2): 25 nM
IC50 (CDK8/Cyclin C; [Probe 3] 0.5 µM, n=1, read-out: IC50): 48 nM
inhibition at 10 µM (CDK11B/Cyclin L2; [1]): 10.3%
inhibition at 10 µM (CDK11B/Cyclin L2; [2]): 10.9%
inhibition at 10 µM (CDK11B/Cyclin L2; [3]): 9.7%
inhibition at 10 µM (CDK12/Cyclin K; [1]): 53.4%
inhibition at 10 µM (CDK12/Cyclin K; [2]): 34.4%
inhibition at 10 µM (CDK12/Cyclin K; [3]): 72.3%
inhibition at 10 µM (CDK10/Cyclin L2; read-out: Inhibition at 10µM (%) Average, CDK10/L2, average of replicates): 84.1%
inhibition at 10 µM (CDK10/Cyclin L2; read-out: Inhibition at 10µM (%) Replicate 1, CDK10/L2): 74.4%
inhibition at 10 µM (CDK10/Cyclin L2; read-out: Inhibition at 10µM (%) Replicate 2, CDK10/L2): 93.8%
inhibition at 10 µM (CDK11A/Cyclin L2; [1]): 49%
inhibition at 10 µM (CDK11A/Cyclin L2; [2]): 22.5%
inhibition at 10 µM (CDK11A/Cyclin L2; [3]): 75.4%
inhibition at 10 µM (CDK5/CDK5R1; [1]): 38.1%
inhibition at 10 µM (CDK5/CDK5R1; [2]): 12.7%
inhibition at 10 µM (CDK5/CDK5R1; [3]): 63.5%
inhibition at 10 µM (CDK2/Cyclin E1; [1]): 2.9%
inhibition at 10 µM (CDK2/Cyclin E1; [2]): -18.7%
inhibition at 10 µM (CDK2/Cyclin E1; [3]): 24.5%
inhibition at 10 µM (CDK9/Cyclin K; [1]): 83.3%
inhibition at 10 µM (CDK9/Cyclin K; [2]): 72.3%
inhibition at 10 µM (CDK9/Cyclin K; [3]): 94.4%
IC50 (CDK19/Cyclin C; IC50 (nM) Average*, CDK19/Y, n=3 average ± SEM, n=2 average to 2 significant figures): 25 nM
IC50 (CDK19/Cyclin C; IC50 (nM) Replicate 1, CDK19/C): 28 nM
IC50 (CDK19/Cyclin C; IC50 (nM) Replicate 2, CDK19/C): 22 nM
IC50 (CDK19/Cyclin C; IC50, [Probe 1] 0.5 µM (plot: [Probe 3]), n=1): 9.4 nM
IC50 (CDK19/Cyclin C; IC50, [Probe 1] 1 µM (plot: [Probe 3]), n=1): 10 nM
inhibition at 10 µM (CDK19/Cyclin C; read-out: Inhibition at 10µM (%) Average, CDK19/C, average of replicates): 98.4%
inhibition at 10 µM (CDK19/Cyclin C; read-out: Inhibition at 10µM (%) Replicate 1, CDK19/C): 94.2%
inhibition at 10 µM (CDK19/Cyclin C; read-out: Inhibition at 10µM (%) Replicate 2, CDK19/C): 103%
inhibition at 10 µM (CDK13/Cyclin K; [1]): 47.2%
inhibition at 10 µM (CDK13/Cyclin K; [2]): 28%
inhibition at 10 µM (CDK13/Cyclin K; [3]): 66.3%
inhibition at 10 µM (CDK4/Cyclin D1; [1]): 75.5%
inhibition at 10 µM (CDK4/Cyclin D1; [2]): 55.7%
inhibition at 10 µM (CDK4/Cyclin D1; [3]): 95.3%
inhibition at 10 µM (CDK20/Cyclin H; [2]): 38.4%
inhibition at 10 µM (CDK20/Cyclin H; [3]): 80.6%
